Patent US7384625B2, “Method and composition for rejuvenating hair, nails, tissues, cells and organs by ex-vivo or immersive treatment” (Farington Pharmaceuticals, LLC, priority 2001, dated 2008)
Entries after “also recorded” stand apart in the source; their conditions may differ.

Legend:
[1] = Hair deformability: stress vs strain of bending individual hairs before and after treatment; conditions: FIG. 1
Text: Methodology for Determination of Stress vs Strain Relationship (Stiffness) The distensibility (i.e, elasticity, rigidity, shear, tensile strength, compression, etc.) of hair, nails, tendons, etc. may be determined using widely available commercial devices, such as manufactured by Instron. Alternatively, other test methods known to a practitioner of the art may be employed. The test assay for determining whether hair has been “rejuvenated” for the present invention is the following. Individual scalp hairs were cemented into the ends of glass capillary tubes such that several centimeters of the shaft protruded from the end. This hair was then trimmed to extend 18 mm from the end of the tube. The unit was then inserted into a micropipette positioner for study. Evaluation consisted of bending the hair by applying a specified force and displacement. Thus, this determination of stress vs strain of bending assessed elasticity, compressibility, and shear of each hair shaft. Each hair served as its own control, with baseline and post-treatment properties assessed and directly compared. A 1 mm thick plate with a 0.5 mm diameter hole drilled through was attached to the surface of an isometric strain gauge. To perform each measurement, the capillary tube was placed over the fenestrated plate and the hair end inserted into the hole in the plate without touching the strain gauge. The hair was then straightened, if necessary, such that its axis formed a 10 degree angle with respect to vertical. Once positioned, the hair was then lowered onto the surface of the strain gauge. The force required to bend each hair a specified distance was determined over a wide range of displacements. From the stress vs strain relationships thus derived, the work to bend each hair under different treatment regimens can be directly compared. For purposes of the present invention, the term “rejuvenated” hair means an improvement of at least 20% in the measured value of the treated hair, toward the values seen in young, undamaged hair (i.e. healthy). […] The stress versus strain relationship was determined as a baseline. […]

[2] = Tendon rejuvenation: elasticity in a materials testing device before and after ex vivo exposure; set-up: species or system hen; conditions: FIG. 2
Protocol: The distensibility (i.e, elasticity, rigidity, shear, tensile strength, compression, etc.) of hair, nails, tendons, etc. may be determined using widely available commercial devices, such as manufactured by Instron. Alternatively, other test methods known to a practitioner of the art may be employed. The elasticity of the Achilles tendon of a one year old hen was determined in a materials testing device before and after ex vivo exposure to 3-(2-phenyl-2-oxoethyl)-4,5-dimethylthiazolium chloride (1 mM) in a bath for 15 minutes.

[3] = Tissue diffusion coefficient rejuvenation of ex vivo donor lungs, tested in the recipient patient after transplantation; conditions: ex vivo organ flushed once with cooled preservation solution containing 0.01 to 1.0 mM; testing in recipient patient
Protocol: The following is an illustration of a methodology that can be used to rejuvenate ex vivo and prior to transplantation to a recipient patient the lungs removed from a donor cadaver aged 21 years or more. […] Individuals' deformability and diffusion characteristics can be characterized by using the standard methodology of determination of the lung diffusing capacity for carbon monoxide (e.g., Chang et al., Chest (1992) 102:139-42). The diffusing capacity is measured in the supine patient using a single breath of carbon monoxide (0.3%) held for ten seconds using a CPI 5000 IV (Gould Instruments, Houston, Tex.), corrected for alveolar volume. A young subject (20 years old) will have approximately a 40% higher diffusion coefficient for carbon monoxide compared to older subjects (60 yrs). The ex vivo organ is flushed once with a cooled preservation solution containing 3-(2-phenyl-2-oxoethyl)-4,5-dimethylthiazolium chloride at a concentration of 0.01 to 1.0 mM.

Q: For `Cc1sc[n+](CC(=O)c2ccccc2)c1C.[Cl-]` [3-(2-phenyl-2-oxoethyl)-4,5-dimethylthiazolium chloride], which distensibility of hair ([1]; 1 mM, 15 minutes, after treatment vs baseline) is on record?
A: increased distensibility

Q: And the stiffness of hair ([1]; after treatment)?
A: decreases the stiffness

Q: What about the “reduction of resulting strain versus before treatment” value ([1]; hair immersed in 1 mM solution for 15 minutes, stress greater than 0.08) of the same molecule?
A: about 50%

Q: What about the distensibility of tendon ([2]; 1 mM bath for 15 minutes ex vivo, post-treatment) of the same molecule?
A: improved; also recorded: significantly increased

Q: And the “strain of treated tendon as percent of the strain of the untreated tendon” value ([2]; 1 mM bath for 15 minutes ex vivo, stress greater than 0.04)?
A: about 50%

Q: And the “tensile strength of tendon” value ([2]; after treatment)?
A: improved

Q: And the “deformability of transplanted lungs” value [3]?
A: improved

Q: What about the “diffusional capacity of transplanted lungs” value [3] of the same molecule?
A: improved
